From patent US8088763B2 (priority 2004, dated 2012)

How the values were obtained:
[1] = biological target: T1, 5HT-uptake (Rattus norvegicus, UniProt P31652); test: biochemical; conditions: for inhibition at 10 µM: read-out: 5HT-uptake [10 μM], % inhibition
T1 construct: synaptosomes were freshly isolated from areas of rats' brains

[2] = biological target: NA-uptake (Rattus norvegicus, UniProt Q63380); test: biochemical; conditions: for inhibition at 10 µM: read-out: NA-uptake [10 μM], % inhibition
Chain of NA-uptake (Q63380 1-617): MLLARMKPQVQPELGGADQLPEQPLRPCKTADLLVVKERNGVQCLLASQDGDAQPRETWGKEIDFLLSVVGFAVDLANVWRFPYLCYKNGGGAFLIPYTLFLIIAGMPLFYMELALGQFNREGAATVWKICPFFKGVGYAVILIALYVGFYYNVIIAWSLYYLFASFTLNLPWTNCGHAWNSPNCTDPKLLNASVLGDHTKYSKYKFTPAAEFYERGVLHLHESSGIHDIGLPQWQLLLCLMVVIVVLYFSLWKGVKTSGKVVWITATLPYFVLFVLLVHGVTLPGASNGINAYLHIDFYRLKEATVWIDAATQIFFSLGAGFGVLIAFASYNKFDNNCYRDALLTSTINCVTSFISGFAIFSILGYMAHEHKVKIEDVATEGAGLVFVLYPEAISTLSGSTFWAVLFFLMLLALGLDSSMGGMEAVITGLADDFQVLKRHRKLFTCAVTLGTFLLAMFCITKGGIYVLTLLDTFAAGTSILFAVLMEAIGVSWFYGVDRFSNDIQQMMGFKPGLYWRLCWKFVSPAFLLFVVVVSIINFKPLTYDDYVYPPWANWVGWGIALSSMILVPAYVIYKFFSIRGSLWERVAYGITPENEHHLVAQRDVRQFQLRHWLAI

T1 sequence (P31652 whole entry): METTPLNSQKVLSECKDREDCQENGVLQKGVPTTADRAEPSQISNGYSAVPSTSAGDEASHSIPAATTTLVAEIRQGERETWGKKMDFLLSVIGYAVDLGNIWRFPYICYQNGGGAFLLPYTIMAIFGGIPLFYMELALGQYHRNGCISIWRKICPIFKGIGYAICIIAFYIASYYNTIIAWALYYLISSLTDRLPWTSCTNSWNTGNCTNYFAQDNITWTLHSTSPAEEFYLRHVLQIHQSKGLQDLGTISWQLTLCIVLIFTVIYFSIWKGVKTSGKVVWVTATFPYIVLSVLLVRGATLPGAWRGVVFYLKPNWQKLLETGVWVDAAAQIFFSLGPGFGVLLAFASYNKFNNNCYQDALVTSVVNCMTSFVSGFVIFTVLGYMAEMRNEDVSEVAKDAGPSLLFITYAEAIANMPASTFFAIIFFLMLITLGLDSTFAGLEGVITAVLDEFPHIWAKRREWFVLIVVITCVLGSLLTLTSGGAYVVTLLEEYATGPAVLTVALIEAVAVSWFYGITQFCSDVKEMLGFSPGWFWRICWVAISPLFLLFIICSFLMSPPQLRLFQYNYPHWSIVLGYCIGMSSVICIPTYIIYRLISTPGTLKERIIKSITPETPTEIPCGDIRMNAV

Compound: Cc1ccc(CC2(N(C)C)CCC(NC(=O)CCC(=O)N3CCN(C(=O)OC(C)(C)C)CC3)CC2)cc1 (stereo not drawn) [Example 28, 4-{3-[4-dimethylamino-4-(4-methyl-benzyl)-cyclohexylcarbamoyl]-propionyl}-piperazin-1-carboxylic acid-tert-butylester]
- inhibition at 10 µM [1]: 92%
- inhibition at 10 µM [2]: 81%

Compound: CN(C)C1(Cc2cccc(Cl)c2)CCC(NC(=O)CCC(=O)N2CC=CCC2)CC1 (stereo not drawn) [Example 39, N-[4-(3-chloro-benzyl)-4-dimethylamino-cyclohexyl]-4-(3,6-dihydro-2H-pyridin-1-yl)-4-oxo-butyramide]
- inhibition at 10 µM [1]: 94%
- inhibition at 10 µM [2]: 90%

Compound: CN(Cc1cccnc1)C(=O)CCC(=O)NC1CCC(Cc2ccc(Cl)cc2)(N(C)C)CC1 (stereo not drawn) [Example 72, N-[4-(4-chloro-benzyl)-4-dimethylamino-cyclohexyl]-N′-methyl-N′-pyridin-3-ylmethyl-succinamide]
- inhibition at 10 µM [1]: 95%
- inhibition at 10 µM [2]: 70%

Compound: Cc1ccc(CC2(N(C)C)CCC(NC(=O)CCC(=O)Nc3ccc(OCc4ccccc4)cc3)CC2)cc1 (stereo not drawn) [Example 101, N-(4-benzyloxy-phenyl)-N′-[4-dimethylamino-4-(4-methyl-benzyl)-cyclohexyl]-succinamide]
- inhibition at 10 µM [1]: 94%
- inhibition at 10 µM [2]: 77%

Compound: CN(C)C1(Cc2cccc(Cl)c2)CCC(NC(=O)CCC(=O)NCc2cc(Cl)ccc2Cl)CC1 (stereo not drawn) [Example 133, N-[4-(3-chloro-benzyl)-4-dimethylamino-cyclohexyl]-N′-(2,5-dichloro-benzyl)-succinamide]
- inhibition at 10 µM [1]: 93%
- inhibition at 10 µM [2]: 97%

Compound: CN(Cc1cccnc1)C(=O)CCC(=O)NC1CCC(Cc2cccc(Cl)c2)(N(C)C)CC1 (stereo not drawn) [Example 137, N-[4-(3-chloro-benzyl)-4-dimethylamino-cyclohexyl]-N′-methyl-N′-pyridin-3-ylmethyl-succinamide]
- inhibition at 10 µM [1]: 94%
- inhibition at 10 µM [2]: 83%

Compound: Cc1ccc(CC2(N(C)C)CCC(NC(=O)CCC(=O)N(C)CCc3ccccn3)CC2)cc1 (stereo not drawn) [Example 38, N-[4-dimethylamino-4-(4-methyl-benzyl)-cyclohexyl]-N′-methyl-N′-(2-pyridin-2-yl-ethyl)-succinamide]
- inhibition at 10 µM [1]: 95%
- inhibition at 10 µM [2]: 79%

Compound: Cc1ccc(CC2(N(C)C)CCC(NC(=O)CCC(=O)N3CCN(C(=O)c4cnc(C)cn4)CC3)CC2)cc1 (stereo not drawn) [Example 10, N-[4-dimethylamino-4-(4-methyl-benzyl)-cyclohexyl]-4-[4-(5-methyl-pyrazin-2-carbonyl)-piperazin-1-yl]-4-oxo-butyramide]
- inhibition at 10 µM [1]: 92%
- inhibition at 10 µM [2]: 78%

Compound: Cc1cccc(CC2(N(C)C)CCC(NC(=O)CCC(=O)N3CCN(C(=O)c4cccc(Cl)c4)CC3)CC2)c1 (stereo not drawn) [Example 107, 4-[4-(3-chloro-benzoyl)-piperazin-1-yl]-N-[4-dimethylamino-4-(3-methyl-benzyl)-cyclohexyl]-4-oxo-butyramide]
- inhibition at 10 µM [1]: 95%
- inhibition at 10 µM [2]: 106%

Compound: CCOc1ccc(N2CCN(C(=O)CCC(=O)NC3CCC(Cc4ccc(Cl)cc4)(N(C)C)CC3)CC2)cc1 (stereo not drawn) [Example 16, N-[4-(4-chloro-benzyl)-4-dimethylamino-cyclohexyl]-4-[4-(4-ethoxy-phenyl)-piperazin-1-yl]-4-oxo-butyramide]
- inhibition at 10 µM [1]: 97%
- inhibition at 10 µM [2]: 86%

Compound: CCOP(=O)(Cc1ccc(NC(=O)CCC(=O)NC2CCC(Cc3cccc(Cl)c3)(N(C)C)CC2)cc1)OCC (stereo not drawn) [Example 37, (4-{3-[4-(3-chloro-benzyl)-4-dimethylamino-cyclohexylcarbamoyl]-propionylamino}-benzyl)-phosphonic acid diethylester]
- inhibition at 10 µM [1]: 95%
- inhibition at 10 µM [2]: 100%

Compound: COc1ccc2[nH]cc(CCNC(=O)CCC(=O)NC3CCC(Cc4cccc(C)c4)(N(C)C)CC3)c2c1 (stereo not drawn) [Example 139, N-[4-dimethylamino-4-(3-methyl-benzyl)-cyclohexyl]-N′-(2-(5-methoxy-1H-indol-3-yl)-ethyl]-succinamide]
- inhibition at 10 µM [1]: 93%
- inhibition at 10 µM [2]: 95%

Compound: CN(C)C1(Cc2cccc(Cl)c2)CCC(NC(=O)CCC(=O)NC2CCOC2=O)CC1 (stereo not drawn) [Example 2, N-[4-(3-chloro-benzyl)-4-dimethylamino-cyclohexyl]-N′-(2-oxo-tetrahydro-furan-3-yl)-succinamide]
- inhibition at 10 µM [1]: 95%
- inhibition at 10 µM [2]: 87%

Compound: CC1CCN(C(=O)CCC(=O)NC2CCC(Cc3ccc(Cl)cc3)(N(C)C)CC2)CC1 (stereo not drawn) [Example 60, N-[4-(4-chloro-benzyl)-4-dimethylamino-cyclohexyl]-4-(4-methyl-piperidin-1-yl)-4-oxobutyramide]
- inhibition at 10 µM [1]: 93%
- inhibition at 10 µM [2]: 71%

Compound: CN(C)C1(Cc2cccc(Cl)c2)CCC(NC(=O)CCC(=O)N2CCc3[nH]c4ccc(F)cc4c3C2)CC1 (stereo not drawn) [Example 8, N-[4-(3-chloro-benzyl)-4-dimethylamino-cyclohexyl]-4-(8-fluoro-1,3,4,5-tetrahydro-pyrido[4,3-b]indol-2-yl)-4-oxo-butyramide]
- inhibition at 10 µM [1]: 92%
- inhibition at 10 µM [2]: 85%

Compound: Cc1ccc(CC2(N(C)C)CCC(NC(=O)CCC(=O)N3CCN(c4cccc(C)c4C)CC3)CC2)cc1 (stereo not drawn) [Example 58, N-[4-dimethylamino-4-(4-methyl-benzyl)-cyclohexyl]-4-[4-(2,3-dimethyl-phenyl)-piperazin-1-yl]-4-oxo-butyramide]
- inhibition at 10 µM [1]: 93%
- inhibition at 10 µM [2]: 79%

Compound: COc1cccc(N2CCN(C(=O)CCCC(=O)NC3CCC(Cc4ccccc4)(N(C)C)CC3)CC2)c1 (stereo not drawn) [Example 91, 5-[4-(3-methoxy-phenyl)-piperazin-1-yl]-5-oxo-valeric acid (4-benzyl-4-dimethylamino-cyclohexyl)-amide]
- inhibition at 10 µM [1]: 92%
- inhibition at 10 µM [2]: 101%

Compound: Cc1ccccc1CNC(=O)CCC(=O)NC1CCC(Cc2ccc(Cl)cc2)(N(C)C)CC1 (stereo not drawn) [Example 50, N-[4-(4-chloro-benzyl)-4-dimethylamino-cyclohexyl]-N′-(2-methyl-benzyl)-succinamide]
- inhibition at 10 µM [1]: 92%
- inhibition at 10 µM [2]: 89%

Compound: CN(C)C1(Cc2cccc(Cl)c2)CCC(NC(=O)CCC(=O)N2CCC3(CC2)C(=O)NCN3c2ccccc2)CC1 (stereo not drawn) [Example 114, N-[4-(3-chloro-benzyl)-4-dimethylamino-cyclohexyl]-4-oxo-4-(4-oxo-1-phenyl-1,3,8-triaza-spiro[4.5]dec-8-yl)-butyramide]
- inhibition at 10 µM [1]: 99%
- inhibition at 10 µM [2]: 106%

Compound: CN(C)C1(Cc2ccc(Cl)cc2)CCC(NC(=O)CCC(=O)Nc2ccc3c(c2)CCC3)CC1 (stereo not drawn) [Example 100, N-[4-(4-chloro-benzyl)-4-dimethylamino-cyclohexyl]-N′-indan-5-yl-succinamide]
- inhibition at 10 µM [1]: 92%
- inhibition at 10 µM [2]: 77%

Compound: CN(CC(=O)OC(C)(C)C)C(=O)CCCC(=O)NC1CCC(Cc2ccccc2)(N(C)C)CC1 (stereo not drawn) [Example 24, {[4-(4-benzyl-4-dimethylamino-cyclohexylcarbamoyl)-butyryl]-methyl-amino}-acetic acid tert butyl ester]
- inhibition at 10 µM [1]: 92%
- inhibition at 10 µM [2]: 91%

Compound: CC(CCc1ccccc1)NC(=O)CCC(=O)NC1CCC(Cc2ccc(Cl)cc2)(N(C)C)CC1 (stereo not drawn) [Example 83, N-[4-(4-chloro-benzyl)-4-dimethylamino-cyclohexyl]-N′-(1-methyl-3-phenyl-propyl)-succinamide]
- inhibition at 10 µM [1]: 93%
- inhibition at 10 µM [2]: 105%

Compound: COc1ccc(N2CCN(C(=O)CCC(=O)NC3CCC(Cc4ccc(C)cc4)(N(C)C)CC3)CC2)cc1 (stereo not drawn) [Example 79, N-[4-dimethylamino-4-(4-methyl-benzyl)-cyclohexyl]-4-[4-(4-methoxy-phenyl)-piperazin-1-yl]-4-oxo-butyramide]
- inhibition at 10 µM [1]: 96%
- inhibition at 10 µM [2]: 95%

Compound: CCC(C)C(NC(=O)CCC(=O)NC1CCC(Cc2cccc(C)c2)(N(C)C)CC1)C(=O)OC(C)(C)C (stereo not drawn) [Example 102, 2-{3-[4-dimethylamino-4-(3-methyl-benzyl)-cyclohexylcarbamoyl]-propionylamino}-3-methyl-valeric acid tert-butyl ester]
- inhibition at 10 µM [1]: 94%
- inhibition at 10 µM [2]: 105%

Compound: CN(C)C1(Cc2ccc(Cl)cc2)CCC(NC(=O)CCC(=O)NCc2cc(F)cc(F)c2)CC1 (stereo not drawn) [Example 49, N-[4-(4-chloro-benzyl)-4-dimethylamino-cyclohexyl]-N′-(3,5-difluoro-benzyl)-succinamide]
- inhibition at 10 µM [1]: 92%
- inhibition at 10 µM [2]: 98%

Compound: COc1cccc(N2CCN(C(=O)CCC(=O)NC3CCC(Cc4cccc(C)c4)(N(C)C)CC3)CC2)c1 (stereo not drawn) [Example 48, N-[4-dimethylamino-4-(3-methyl-benzyl)-cyclohexyl]-4-[4-(3-methoxy-phenyl)-piperazin-1-yl]-4-oxo-butyramide]
- inhibition at 10 µM [1]: 94%
- inhibition at 10 µM [2]: 97%

Compound: CCOP(=O)(Cc1ccc(NC(=O)CCC(=O)NC2CCC(Cc3ccc(Cl)cc3)(N(C)C)CC2)cc1)OCC (stereo not drawn) [Example 93, (4-{3-[4-(4-chloro-benzyl)-4-dimethylamino-cyclohexylcarbamoyl]-propionylamino}-benzyl)-phosphonic acid diethylester]
- inhibition at 10 µM [1]: 92%
- inhibition at 10 µM [2]: 75%

Compound: Cc1cccc(CC2(N(C)C)CCC(NC(=O)CCC(=O)N(C)CC(=O)OCc3ccccc3)CC2)c1 (stereo not drawn) [Example 22, ({3-[4-dimethylainino-4-(3-methyl-benzyl)-cyclohexylcarbamoyl]-propionyl}-methyl-amino)-acetic acid benzyl ester]
- 5HT-uptake [10 μM], % inhibition [1]: 95%
- NA-uptake [10 μM], % inhibition [2]: 93%

Compound: Cc1cccc(CC2(N(C)C)CCC(NC(=O)CCC(=O)N3CCN(Cc4c(Cl)cccc4Cl)CC3)CC2)c1 (stereo not drawn) [Example 23, 4-[4-(2,6-dichloro-benzyl)-piperazin-1-yl]-N-[4-dimethylamino-4-(3-methyl-benzyl)-cyclohexyl]-4-oxo-butyramide]
- inhibition at 10 µM [1]: 92%
- inhibition at 10 µM [2]: 92%

Compound: Cc1ccc(CC2(N(C)C)CCC(NC(=O)CCC(=O)N3CCN(c4ccc(Cl)cc4)CC3)CC2)cc1 (stereo not drawn) [Example 96, 4-[4-(4-chloro-phenyl)-piperazin-1-yl]-N-[4-dimethylamino-4-(4-methyl-benzyl)-cyclohexyl]-4-oxo-butyramide]
- inhibition at 10 µM [1]: 94%
- inhibition at 10 µM [2]: 87%
